US20200405697A1, “Antitumor Agent” (Taiho Pharmaceutical Co., Ltd, priority 2017, published 2020)

Tested on: A549 (Human lung cancer cell line)
Assay: Effect of combination of sulfonamide compound and other antitumor agent (CellTiter-Glo, combination index): A549
[1] = Example Compound 1 281 nM + Fludarabine nucleoside 5920 nM, molar ratio 1:21.08
[2] = Example Compound 1 281 nM + Prexasertib 1.97 nM, molar ratio 1:0.007018
[3] = Example Compound 1 281 nM + SCH900776 908 nM, molar ratio 1:3.232
[4] = Example Compound 1 422 nM + AZD6738 1040 nM, molar ratio 1:2.455
[5] = Example Compound 1 422 nM + Cytarabine 108 nM, molar ratio 1:0.2566
[6] = Example Compound 1 422 nM + Fludarabine nucleoside 8900 nM, molar ratio 1:21.08
[7] = Example Compound 1 422 nM + Prexasertib 2.96 nM, molar ratio 1:0.007018
[8] = Example Compound 1 422 nM + SCH900776 1360 nM, molar ratio 1:3.232
[9] = Example Compound 1 633 nM + AZD6738 1550 nM, molar ratio 1:2.455
[10] = Example Compound 1 633 nM + Fludarabine nucleoside 13300 nM, molar ratio 1:21.08
[11] = Example Compound 1 633 nM + Guadecitabine 489 nM, molar ratio 1:0.7725
[12] = Example Compound 1 633 nM + Prexasertib 4.44 nM, molar ratio 1:0.007018
[13] = Example Compound 1 633 nM + SCH900776 2050 nM, molar ratio 1:3.232
[14] = Example Compound 1 949 nM + AZD6738 2330 nM, molar ratio 1:2.455
[15] = Example Compound 1 949 nM + Azacytidine 2740 nM, molar ratio 1:2.885
[16] = Example Compound 1 949 nM + Cytarabine 244 nM, molar ratio 1:0.2566
[17] = Example Compound 1 949 nM + Decitabine 2000 nM, molar ratio 1:2.108
[18] = Example Compound 1 949 nM + Fludarabine nucleoside 20000 nM, molar ratio 1:21.08
[19] = Example Compound 1 949 nM + Guadecitabine 733 nM, molar ratio 1:0.7725
[20] = Example Compound 1 949 nM + Prexasertib 6.66 nM, molar ratio 1:0.007018
[21] = Example Compound 1 949 nM + SCH900776 3070 nM, molar ratio 1:3.232
[22] = Example Compound 1 949 nM + Sunitinib 1870 nM, molar ratio 1:1.969
[23] = Example Compound 1 949 nM + Trifluridine 430 nM, molar ratio 1:0.4535
[24] = Example Compound 1 1420 nM + 5-Fluorouracil 2700 nM, molar ratio 1:1.900
[25] = Example Compound 1 1420 nM + AZD6738 3490 nM, molar ratio 1:2.455
[26] = Example Compound 1 1420 nM + Azacytidine 4100 nM, molar ratio 1:2.885
[27] = Example Compound 1 1420 nM + Cytarabine 364 nM, molar ratio 1:0.2566
[28] = Example Compound 1 1420 nM + Decitabine 2990 nM, molar ratio 1:2.108
[29] = Example Compound 1 1420 nM + Etoposide 3780 nM, molar ratio 1:2.663
[30] = Example Compound 1 1420 nM + Gemcitabine 8.37 nM, molar ratio 1:0.005895
[31] = Example Compound 1 1420 nM + Guadecitabine 1100 nM, molar ratio 1:0.7725
[32] = Example Compound 1 1420 nM + Lapatinib 5990 nM, molar ratio 1:4.216
[33] = Example Compound 1 1420 nM + Luminespib 13.5 nM, molar ratio 1:0.009473
[34] = Example Compound 1 1420 nM + Midostaurin 250 nM, molar ratio 1:0.1761
[35] = Example Compound 1 1420 nM + Olaparib 14800 nM, molar ratio 1:10.40
[36] = Example Compound 1 1420 nM + Oxaliplatin 1060 nM, molar ratio 1:0.7448
[37] = Example Compound 1 1420 nM + Sunitinib 2800 nM, molar ratio 1:1.969
[38] = Example Compound 1 1420 nM + Talazoparib 7980 nM, molar ratio 1:5.617
[39] = Example Compound 1 1420 nM + Trifluridine 644 nM, molar ratio 1:0.4535
[40] = Example Compound 1 2140 nM + Cabozantinib […], molar ratio 1:4.216
[41] = Example Compound 1 2140 nM + Carboplatin 79500 nM, molar ratio 1:37.17
[42] = Example Compound 1 2140 nM + Cisplatin 9620 nM, molar ratio 1:4.494
[43] = Example Compound 1 2140 nM + Trifluridine 970 nM, molar ratio 1:0.4535
[44] = Example Compound 1 3200 nM + Carboplatin 119000 nM, molar ratio 1:37.17
[45] = Example Compound 1 3200 nM + Cisplatin 14400 nM, molar ratio 1:4.494
[46] = Example Compound 1 4810 nM + Carboplatin 179000 nM, molar ratio 1:37.17

Cc1ccc(F)c([C@@H](C)[C@H](NS(=O)(=O)c2ccc(Br)cc2C(N)=O)c2n[nH]c(=O)o2)c1C [Example 1, 5-bromo-2-(N-((1 S,2R)-2-(6-fluoro-2,3-dimethylphenyl)-1-(5-oxo-4,5-dihydro-1,3,4-oxadiazol-2-yl)propyl)sulfamoyl)benzamide]
CI value [1]: 0.550 | Fa value [1]: 0.2653 | CI value [2]: 0.349 | Fa value [2]: 0.3570 | CI value [3]: 0.196 | Fa value [3]: 0.6117 | CI value [4]: 0.449 | Fa value [4]: 0.5145 | CI value [5]: 0.770 | Fa value [5]: 0.4482 | CI value [6]: 0.388 | Fa value [6]: 0.6824 | CI value [7]: 0.226 | Fa value [7]: 0.7264 | CI value [8]: 0.195 | Fa value [8]: 0.7479 | CI value [9]: 0.350 | Fa value [9]: 0.7602 | CI value [10]: 0.367 | Fa value [10]: 0.8650 | CI value [11]: 0.471 | Fa value [11]: 0.4374 | CI value [12]: 0.193 | Fa value [12]: 0.8863 | CI value [13]: 0.190 | Fa value [13]: 0.8581 | CI value [14]: 0.315 | Fa value [14]: 0.8849 | CI value [15]: 0.895 | Fa value [15]: 0.5060 | CI value [16]: 0.461 | Fa value [16]: 0.7886 | CI value [17]: 0.501 | Fa value [17]: 0.5507 | CI value [18]: 0.537 | Fa value [18]: 0.8719 | CI value [19]: 0.502 | Fa value [19]: 0.5583 | CI value [20]: 0.288 | Fa value [20]: 0.8866 | CI value [21]: 0.257 | Fa value [21]: 0.8783 | CI value [22]: 0.721 | Fa value [22]: 0.6537 | CI value [23]: 0.890 | Fa value [23]: 0.6005 | CI value [24]: 0.881 | Fa value [24]: 0.6426 | CI value [25]: 0.482 | Fa value [25]: 0.8809 | CI value [26]: 0.676 | Fa value [26]: 0.7364 | CI value [27]: 0.491 | Fa value [27]: 0.8557 | CI value [28]: 0.583 | Fa value [28]: 0.6575 | CI value [29]: 0.772 | Fa value [29]: 0.6999 | CI value [30]: 0.858 | Fa value [30]: 0.8410 | CI value [31]: 0.563 | Fa value [31]: 0.6756 | CI value [32]: 0.480 | Fa value [32]: 0.8412 | CI value [33]: 0.894 | Fa value [33]: 0.7741 | CI value [34]: 0.871 | Fa value [34]: 0.7361 | CI value [35]: 0.761 | Fa value [35]: 0.6398 | CI value [36]: 0.831 | Fa value [36]: 0.7172 | CI value [37]: 0.688 | Fa value [37]: 0.8162 | CI value [38]: 0.661 | Fa value [38]: 0.6630 | CI value [39]: 0.717 | Fa value [39]: 0.8230 | CI value [40]: 0.790 | Fa value [40]: 0.9173 | CI value [41]: 0.632 | Fa value [41]: 0.9198 | CI value [42]: 0.848 | Fa value [42]: 0.9125 | CI value [43]: 0.761 | Fa value [43]: 0.8988 | CI value [44]: 0.502 | Fa value [44]: 0.9734 | CI value [45]: 0.694 | Fa value [45]: 0.9675 | CI value [46]: 0.569 | Fa value [46]: 0.9841
